Measurements taken from patent publication US20050209147A1, “Peptide inhibitors of RhoA signaling” (The Board of Trustees of the Leland Stanford Junior …, priority 2004, published 2005).

How the values were obtained:
[1] = test system: CCL21-induced LFA-1-dependent lymphocyte adhesion to ICAM-1; experiment: In vitro rapid adhesion assay on ICAM-1; type: cell-based, mouse; conditions: 1 μM CCL21; for rapid adhesion induced by CCL21 on high density of ICAM-1: high density of ICAM-1 (˜5000 sites/μm^2); for rapid adhesion induced by CCL21 on low density of ICAM-1: low density of ICAM-1 (−500 sites/μm^2)
Procedure: In vitro rapid adhesion assay on ICAM-1. ICAM-1 was purified from mouse spleens and adhesion assays were performed as previously reported. Briefly, primary naïve lymphocytes (about 70% T-, 30% B-cells) were isolated from peripheral and mesenteric lymph nodes and Peyer's patches from young BALB/c mice (Harlan, Italy). Adhesion assays were performed on eighteen well glass slides coated overnight at 4° C. with purified mouse ICAM-1; site density per square micrometer of immobilized ICAM-1 was calculated as reported.

[2] = test system: LFA-1 high affinity state; experiment: Measurement of LFA-1 high affinity state (soluble 125I-ICAM-1 binding); type: cell-based, mouse; conditions: 1 μM CCL21 2 min
Procedure: Measurement of LFA-1 high affinity state. Induction of LFA-1 high affinity state by CCL21 was evaluated by measuring binding of soluble ^125I-ICAM-1. Briefly, ICAM-1 was iodinated with ^125NaI by the Chizzonite method. The binding assay was performed at 37° C. in a 500 μl Eppendorf tube. 40 μl of lymphocyte suspension (5×10^7/ml in PBS containing 1 mg/ml BSA, 2 mM MgCl2, 1 mM CaCl2, 1 mM D-glucose, pH 7.2) were directly layered on […] oil cushion of 2/1 dibutyl/dioctyl phthalates. Lymphocytes were stimulated with 10 μl of PBS containing chemokine (6 μM) and ^125I-ICAM-1 (5×10^5 CPM corresponding approximately to 2 μg of ^125I-ICAM-1). The binding reaction was stopped by rapid centrifugation in microfuge. Radioactivity bound to lymphocytes was counted with a gamma counter.

LFA-1 lateral mobility = experiment: LFA-1 distribution on plasma membrane (confocal microscopy); type: cell-based, mouse; conditions: 1 μM CCL21 2 min
Procedure: Evaluation of LFA-1 distribution on plasma membrane. Analysis and quantification of chemokine-induced LFA-1 surface distribution was determined by confocal microscopy, following the same procedure previously described. Briefly, lymphocytes were stimulated in suspension under stirring and then immediately fixed in 1% ice-cold paraformaldehyde in PBS, pH 7.4, for 10 min. Cell were washed and incubated with 10 μg/ml of TIB213 rat anti-mouse LFA-1 (ATCC) for 30 min on ice, washed 3 times and then incubated 30 min with Texas Red-conjugated goat anti-rat secondary antibody. The washed cells adhered for 30 min at 4° C. on 0.1% poly-L-lysine coated round 13 mm glass coverslips and were analyzed with a Carl Zeiss LSM 510 confocal imaging system, with a 63×C-Apochromat objective (NA 1.2). Definition and quantitative analysis of “disperse” and “clustered” morphologies of LFA-1 distribution was as previously described.

[3] = test system: lymphocyte rolling and arrest on PP-HEV; experiment: Intravital video microscopy of lymphocyte-high endothelial venule interaction in Peyer's patches; type: in vivo, mouse
Procedure: Intravital video microscopy analysis of lymphocyte-high endothelial venule interaction in Peyer's patches. Lymphocytes (5×10^6/ml in DMEM without sodium bicarbonate supplemented with 20 mM Hepes, 5% FCS, pH7.1) were labeled with either CMFDA or CMTMR for 30 min at 37° C. 30×10^6 labeled cells were injected iv. In situ videomicroscopic analyses were carried out in high endothelial venules (HEV) in the secondary lymphoid organ Peyer's patch (PP) as previously described. Cell behavior was analyzed over a period of 20-30 min starting at 2 minutes after iv injection. Interactions of ≧1 s were considered significant and were scored. Cells were considered to be interacting whether they rolled, arrested or both. Lymphocytes that remained firmly adherent on venular wall for ≧10 s were considered arrested.

[4] = test system: ζ PKC translocation to the plasma membrane; experiment: ζ PKC intracellular distribution (sucrose gradient, immunoblot); type: cell-based; conditions: CCL21 30 seconds; for ζ PKC translocation to the plasma membrane induced by CCL21: lymphocytes, 30 min pretreatment
Procedure: ζ PKC intracellular distribution. The assay was performed as previously described. Briefly, lymphocytes were stimulated under stirring with agonists at 37° C. Stimulation was stopped by diluting the cells in a 10 times larger volume of ice-cold PBS. Cells, resuspended in 1 ml of ice-cold PBS containing 8% sucrose, containing the Complete™ protease inhibitor cocktail from Roche, were sonicated and the homogenates were centrifuged at 800×g/10 min to remove nuclei and unbroken cells. The postnuclear supernatant was loaded on discontinuous sucrose gradient (50% sucrose, 30% sucrose) and centrifuged for 120 min. at 100,000×g. The light membrane fraction (plasma membrane) was collected in the 30% layer. Following SDS-PAGE on 10% acrylamide, proteins were electroblotted on nitrocellulose filters, probed with rabbit polyclonal antibodies anti ζ PKC (Santa Cruz Biotechnology), followed by goat polyclonal anti-rabbit HRP conjugated (Sigma) and developed using ECL (Amersham).

[5] = test system: Swiss 3T3 mouse fibroblasts; experiment: LPA-induced actin stress fibers and membrane ruffling in fibroblasts; type: cell-based; conditions: 4 hours at 37° C. with peptide, then 10 min 25 ng/ml LPA
Procedure: Evaluation of actin stress fibers content. Swiss 3T3 mouse fibroblasts were maintained in DMEM containing 10% FCS for 6 days and then starved for 12 hours. Actin stress fibers content was evaluated in permeabilized cells with TRITC-labeled phalloidin. Analysis was performed by using a Zeiss LSM confocal microscope.

ζ PKC = experiment: Measurement of ζ PKC kinase activity; type: cell-based; conditions: 150 nM Wortmannin or 30 μM LY294002, 30 min, lymphocytes
Procedure: Measurement of ζ PKC kinase activity. The assay was performed as previously described. Briefly, lymphocytes were stimulated under stirring with agonists at 37° C. Stimulation was stopped with lysis buffer containing 50 mM Tris-HCl, pH 7.5, 1% Triton X-100, 0.01% SDS, 150 mM NaCl, 50 mM NaF, 10 mM sodium pyrophosphate, 1 μM phenylarsine oxide, containing the Complete™ protease inhibitor cocktail from Roche. After 30 min. on ice, lysates were centrifuged at 16,000 g for 1 min. to remove cell debris. Rabbit polyclonal anti ζ PKC (1 μg) or control rabbit serum was added to equal amount of cell lysates, followed by immunoprecipitation with trisacryl protein A. Equal amounts of ζ PKC were immunoprecipitated as confirmed by Western blot analysis. After four washing, immunoprecipitates were subjected to the kinase reaction for 30 min. at 30° C. in 50 μl of kinase buffer containing 0.5 mM EGTA, 10 mM MgC2, 20 mM HEPES, pH 7.4, 50 μM ATP, 5 μCi [γ-^32P]ATP and 2 μg myelin basic protein (MBP) as a substrate. The reaction was stopped by addition of 5% TCA and the reaction mixture was filtered through phosphocellulose paper. After four rinses with 1% phosphoric acid radioactivity on the filter was determined at a scintillation counter.

[6] = molecular target: T1, RhoA binding to Citron-RBD (Homo sapiens, UniProt O14578); experiment: Affinity-precipitation (pull-down) of GTP-Val14-RhoA with Citron GST-RBD; conditions: 20 μg of domain, anti-RhoA immunoblot
T1 sequence (O14578 1091-1302 limits assumed): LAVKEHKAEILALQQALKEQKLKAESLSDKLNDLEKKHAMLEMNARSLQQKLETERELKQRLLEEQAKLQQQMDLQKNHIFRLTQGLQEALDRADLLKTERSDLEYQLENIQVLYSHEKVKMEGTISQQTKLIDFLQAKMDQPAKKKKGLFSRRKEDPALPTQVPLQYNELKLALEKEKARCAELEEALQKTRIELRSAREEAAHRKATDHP
Procedure: (§1) Specificity of RhoA fusion domains and measurement of RhoA activation. The specificity of P1-RhoA fusion domains was evaluated by affinity-precipitation assay using the rho-binding domain (RBD) from Citron, Rhotekin and ROCK. Recombinant Val14-RhoA was loaded with 1 mM GTP at 37° C. for 90 min. 10 μg of Citron, Rhotekin or ROCK GST-RBD conjugated with glutathione beads were mixed with 5 μg of GTP-Val14-RhoA in […] of 50 mM Tris-HCl (pH 7.4), 5 mM MgCl2, 0.5 mM GTP, 2 mg/ml BSA (binding buffer). Binding was for 60 min. at 15° C. The beads were washed twice with binding buffer and subjected to SDS-polyacrylamide gel electrophoresis on a 12% gel. RhoA background binding to glutathione beads was negligible. In case of experiments in presence of P1-RhoA fusion domains, the domains were previously dissolved in binding buffer at 1 mg/ml.

[7] = test system: autoreactive, encephalitogenic T lymphocytes in inflamed brain microvessels; experiment: Intravital microscopy of Ag-stimulated lymphocyte recruitment in inflamed brain microvessels; type: in vivo; conditions: mouse model simulating human Multiple Sclerosis
Procedure: The RhoA derived peptides described in Example 1 were tested for their ability to inhibit Ag-stimulated lymphocyte (autoreactive, encephalitogenic T lymphocytes) recruitment in inflamed brain by looking in vivo cell behavior with intravital microscopy, as described in Example 1. This in vivo model simulates, in mouse, human Multiple Sclerosis.

[8] = molecular target: T2, RhoA binding to Rhotekin-RBD (Homo sapiens, UniProt Q9BST9); experiment: Affinity-precipitation (pull-down) of GTP-Val14-RhoA with Rhotekin GST-RBD; conditions: 20 μg of domain, anti-RhoA immunoblot
T2 sequence (Q9BST9 17-98 limits assumed): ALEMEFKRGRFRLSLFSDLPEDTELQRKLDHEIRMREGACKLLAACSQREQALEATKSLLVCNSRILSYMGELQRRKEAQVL
Procedure: as §1

[9] = pretreated lymphocytes injected iv

| Compound | rapid adhesion induced by CCL21 on high density of ICAM-1 [1] | rapid adhesion induced by CCL21 on low density of ICAM-1 [1] | LFA-1 high affinity state triggering by CCL21 [2] | LFA-1 rapid lateral mobility (generation of LFA-1 clusters) induced by CCL21 (LFA-1 lateral mobility) | rolling and arrest of circulating lymphocytes on PP-HEV [3, 9] | ζ PKC translocation to the plasma membrane induced by CCL21 [4] | prevention of the increase of ζ PKC kinase activity induced by CCL21 (ζ PKC) | further results |
| --- | --- | --- | --- | --- | --- | --- | --- | --- |
| C[C@@H](N)[C@H]1CC[C@H](C(=O)Nc2ccncc2)CC1 [Y27632, reference compound] | did not inhibit | did not inhibit | neither LFA-1 affinity triggering (FIG. 2H) nor induction of lateral mobility were blocked | neither LFA-1 affinity triggering (FIG. 2H) nor induction of lateral mobility were blocked | rolled and adhered normally |  |  |  |
| P1: Plasma membrane translocating sequence from third helix of Antennapedia homeodomain, RQIKIWFQNRRMKWKK; control peptide [reference compound] | ineffective | unable to block | did not prevent | did not prevent | did not affect | did not prevent |  | accumulation of actin stress fibers upon LPA triggering [5]: completely ineffective |
| COC[C@H]1OC(=O)c2coc3c2[C@@]1(C)C1=C(C3=O)[C@@H]2CCC(=O)[C@@]2(C)C[C@H]1OC(C)=O [Wortmannin] |  |  |  |  |  |  | about 51% |  |
| P1-RhoA 23-40: Penetratin-1 fused through a glycine to human RhoA aa 23-40 (IVFSKDQFPEVYVPTVFE, Domain I); aa 34 | blocked adhesion triggering in a dose-dependent manner | prevented in a dose-dependent manner |  | prevented |  | blocked |  | binding of RhoA to Citron [6]: blocked; recruitment/arrest of Ag-stimulated lymphocytes in inflamed brain microvessels [7]: blocks recruitment; blockade of ζ PKC translocation to the plasma membrane, densitometric analysis ([4]; 100 μM): about 82%; percentage of cells displaying only rolling on PP-HEV ([3]; 50 μM pretreatment): increased; inhibition of stable arrest of lymphocytes on PP-HEV ([3]; 50 μM pretreatment, P<0.01): about 75%; lymphocyte tethering and interaction with vessels ([3]; pretreated lymphocytes injected iv, 50 μM): did not influence |
| O=c1cc(N2CCOCC2)oc2c(-c3ccccc3)cccc12 [LY294002] |  |  |  |  |  |  | ~62% |  |
| P1-RhoA 75-92: Penetratin-1 fused through a glycine to human RhoA aa 75-92 (PDTDVILMCFSIDSPDSL, Domain II); aa 34 | ineffective | unable to block |  | did not prevent | did not affect | did not prevent |  | binding of RhoA to Rhotekin [8]: blocked |
